Laboratory results as given in paper PMC9029360, “Cyclooxygenase-Inhibiting Platinum(IV) Prodrugs with Potent Anticancer Activity” (Pharmaceutics, 2022).
Where two headings read alike, the source gives them in different places.

Tests used:
SJ-G2 glioblastoma [1] = experiment: In vitro cytotoxicity MTT assay, SJ-G2 glioblastoma; format: cell-based; conditions: 72 h drug exposure, n = 3
H460 lung [2] = experiment: In vitro cytotoxicity MTT assay, H460 lung; format: cell-based; conditions: n = 3
A2780 ovarian [3] = experiment: In vitro cytotoxicity MTT assay, A2780 ovarian; format: cell-based; conditions: 72 h drug exposure, n = 3
MCF-7 breast [4] = experiment: In vitro cytotoxicity MTT assay, MCF-7 breast; format: cell-based; conditions: n = 3
MIA pancreas [5] = experiment: In vitro cytotoxicity MTT assay, MIA pancreas; format: cell-based; conditions: 72 h drug exposure, n = 3
A431 skin [6] = experiment: In vitro cytotoxicity MTT assay, A431 skin; format: cell-based; conditions: n = 3
[7] = tested on: cisplatin-resistant ADDP ovarian (subclone of A2780 cell line); experiment: In vitro cytotoxicity MTT assay, cisplatin-resistant ADDP ovarian; format: cell-based; conditions: ADDP (cisplatin-resistant), MTT, 72 h drug exposure, n = 3
BE2-C neuroblastoma [8] = experiment: In vitro cytotoxicity MTT assay, BE2-C neuroblastoma; format: cell-based; conditions: 72 h drug exposure, n = 3
[9] = tested on: HT29 colon cancer cell line; experiment: In vitro cytotoxicity MTT assay, HT29 colon; format: cell-based; conditions: n = 3
[10] = tested on: Du145 prostate cancer cell line; experiment: In vitro cytotoxicity MTT assay, Du145 prostate; format: cell-based; conditions: n = 3
[11] = tested on: MCF10A breast cell line (non-tumour derived); experiment: In vitro cytotoxicity MTT assay, non-tumour MCF10A breast; format: cell-based; conditions: MCF10A (non-cancerous), 72 h drug exposure, n = 3
U87 glioblastoma [12] = experiment: In vitro cytotoxicity MTT assay, U87 glioblastoma; format: cell-based; conditions: 72 h drug exposure, n = 3
[13] = tested on: Du145 prostate cancer cell line; conditions: MTT, 72 h, cited from earlier work
U87 glioblastoma [14] = conditions: MTT, 72 h, cited from earlier work
MIA pancreas [15] = conditions: MTT, 72 h, cited from earlier work
SJ-G2 glioblastoma [16] = conditions: MTT, 72 h, cited from earlier work
[17] = tested on: cisplatin-resistant ADDP ovarian (subclone of A2780 cell line); conditions: MTT, 72 h, ref [2] Macias et al., Eur. J. Chem. 2015; cited from earlier work
[18] = tested on: HT29 colon cancer cell line; conditions: MTT, 72 h, cited from earlier work
H460 lung [19] = conditions: MTT, 72 h, cited from earlier work
A2780 ovarian [20] = conditions: MTT, 72 h, cited from earlier work
MCF-7 breast [21] = conditions: MTT, 72 h, cited from earlier work
A431 skin [22] = conditions: MTT, 72 h, cited from earlier work
[23] = tested on: MCF10A breast cell line (non-tumour derived); conditions: MTT, 72 h, cited from earlier work
BE2-C neuroblastoma [24] = conditions: MTT, 72 h, cited from earlier work
[25] = Lipophilicity by RP-HPLC (log kw); format: physicochemical; conditions: capacity factor extrapolated to 100% water
Description: HPLC experiments were executed on an Agilent (Melbourne, Australia) Technologies 1260 Infinity instrument equipped with a Phenomenex (Sydney, Australia) Onyx^TM Monolithic C18 reverse phase column (100 × 4.6 mm, 130 Å). The mobile phase was comprised of 0.06% TFA in water (solvent A) and 0.06% TFA in an acetonitrile-water mixture (9:1) (solvent B). A sample injection volume of 10 µL was used at a flow rate of 1 mL/min and eluted over a gradient of 0–100% for 15 min. A PDA was used to detect the eluting peaks at 254 nm. Lipophilicity experiments to determine logkw values were undertaken following previously published methods. Rather than a gradient, different isocratic ratios ranging from 28–56% of solvent B were employed and the retention times measured for each complex. Potassium iodide was used as an external dead volume marker to determine the dead time of the column. The following equation was used to calculate the capacity factors:(1) k=tr−t0/t0 where k is the capacity factor, tr is the retention time of the analyte, and t0 is the dead time. Following this, log k was plotted against the percentage of ACN. Five different concentrations of ACN were used to produce a linear plot comprised of R^2 > 0.99. This graph produced the following equation:(2) logk=Sφ+logkw where S is the slope, φ is the % ACN, and the y-intercept, represented as logkw , is the capacity factor of the compound in 100% water.
Lipophilicity studies were carried out to determine the logkw of each complex. This was ascertained through a RP-HPLC based approach whereby complexes were eluted at several isocratic ratios. In turn, retention times were employed as in Equation (1), where the capacity factor (k) was calculated. The log k value at each ratio was then plotted against the percentage of the organic solvent used in solvent B, producing a linear equation that allowed for logkw to be extrapolated (Figure S43). The logkw value represents the retention factor in a 100% aqueous solution; thus, higher values indicate more lipophilic compounds. While this method for determining lipophilicity is slightly different from the shake-flask method, it has been used previously to compare a series of complexes that are structurally similar and is fitting for this group of complexes.

[26] = Preliminary NMR reduction study with ascorbic acid; format: physicochemical; conditions: D2O with 10X PBS, 37 °C
Description: Given that 1–4 were designed on the premise of functionating as prodrugs, it is anticipated that these complexes be reduced to platinum(II) and release their respective axial ligands, which will allow each component to exert its activity. To explore this possibility, preliminary NMR reduction studies were undertaken for 3. The sample was prepared in D2O with 10X PBS before ascorbic acid was added, and the sample was monitored by ^1H NMR at 37 °C. After the addition of ascorbic acid, resonances corresponding to the platinum(II) species appeared, with the intensities increasing over time, while the peaks correlating to platinum(IV) species decreased (Figure 5). Following this, ^195Pt NMR was carried out in order to confirm that the platinum(II) species remained intact.

[27] = ref [2] Macias et al., Eur. J. Chem. 2015
[28] = ref [1] Deo et al., Dalton Trans. 2019

Row | Compound | GI50 (SJ-G2 glioblastoma [1]) [nM] | GI50 (H460 lung [2]; 72 h drug exposure) [nM] | GI50 (A2780 ovarian [3]) [nM] | GI50 (MCF-7 breast [4]; 72 h drug exposure) [nM] | GI50 (MIA pancreas [5]) [nM] | GI50 (A431 skin [6]; 72 h drug exposure) [nM] | GI50 [7] [nM] | GI50 (BE2-C neuroblastoma [8]) [nM] | GI50 ([9]; 72 h drug exposure) [nM] | GI50 ([10]; 72 h drug exposure) [nM] | GI50 [11] [nM] | GI50 (U87 glioblastoma [12]) [nM] | Log kw [25] | also measured
1 | Cc1c(C)c2cccnc2c2ncccc12.N[C@H]1CCCC[C@@H]1N.[Cl-].[Cl-].[Pt+2] [56MESS(II)] | 150 | 28 ± 4.7 | 39 ± 7.7 | 33 ± 12 | 22 | 36 ± 11 | 27 ± 4.1 | 86 ± 3 | 15 ± 6.2 | 10 ± 1.3 | 25 ± 10 | 76 ± 8.7 | – | –
2 | Cc1c(C)c2cccnc2c2ncccc12.N[C@H]1CCCC[C@@H]1N.O=[N+]([O-])[O-].O=[N+]([O-])[O-].[OH-].[OH-].[Pt+4] [56MESS(IV)] | 210 ± 45 | 190 ± 150 | 56 ± 7.1 | 480 ± 140 | 43 ± 2.5 | 120 ± 22 | 170 ± 120 | 240 ± 22 | 36 ± 7 | 15 ± 2.6 | 61 ± 7.3 | 190 ± 23 | – | –
3 | N.N.O=C([O-])C1(C(=O)[O-])CCC1.[Pt+2] [Carboplatin, carboplatin] | – | – | – | – | – | – | – | – | – | – | – | – | – | GI50 [13, 27]: 14700 nM; GI50 (U87 glioblastoma [14]; [27]): > 50000 nM; GI50 (MIA pancreas [15]; [27]): > 50000 nM; GI50 (SJ-G2 glioblastoma [16]; [27]): 5700 nM; GI50 [17]: > 50000 nM; GI50 [18, 27]: > 50000 nM; GI50 (H460 lung [19]; [27]): 14000 ± 1000 nM; GI50 (A2780 ovarian [20]; [27]): 9200 ± 2900 nM; GI50 (MCF-7 breast [21]; [27]): > 50000 nM; GI50 (A431 skin [22]; [27]): 24300 nM; GI50 [23, 27]: > 50000 nM; GI50 (BE2-C neuroblastoma [24]; [27]): 18700 nM
4 | COc1ccc2c(c1)c(CC(=O)O)c(C)n2C(=O)c1ccc(Cl)cc1 [Indomethacin, indomethacin] | > 50000 | – | – | – | > 50000 | – | – | – | – | – | – | > 50000 | – | GI50 (H460 lung [2]; Homo sapiens, NCI-H460, 72 h drug exposure): > 50000 nM; GI50 (A2780 ovarian [3]; Homo sapiens): 5700 ± 800 nM; GI50 (MCF-7 breast [4]; Homo sapiens, MCF7, 72 h drug exposure): > 50000 nM; GI50 (A431 skin [6]; Homo sapiens, A-431, 72 h drug exposure): > 50000 nM; GI50 ([7]; Homo sapiens, A2780): > 50000 nM; GI50 (BE2-C neuroblastoma [8]; Homo sapiens, BE(2)-C): > 50000 nM; GI50 ([9]; Homo sapiens, HT-29, 72 h drug exposure): > 50000 nM; GI50 ([10]; Homo sapiens, DU-145, 72 h drug exposure): > 50000 nM; GI50 ([11]; Homo sapiens, MCF-10A): > 50000 nM
5 | O=C1[O][Pt]2([NH][C@@H]3CCCC[C@H]3[NH]2)[O]C1=O [Oxaliplatin, oxaliplatin] | – | – | – | – | – | – | – | – | – | – | – | – | – | GI50 [13, 27]: 2900 ± 400 nM; GI50 (U87 glioblastoma [14]; [27]): 1800 ± 200 nM; GI50 (MIA pancreas [15]; [27]): 900 nM; GI50 (SJ-G2 glioblastoma [16]; [27]): 3000 ± 1200 nM; GI50 [17]: 822 ± 130 nM; GI50 [18, 27]: 900 ± 200 nM; GI50 (H460 lung [19]; [27]): 1600 ± 100 nM; GI50 (A2780 ovarian [20]; [27]): 160 nM; GI50 (MCF-7 breast [21]; [27]): 500 ± 100 nM; GI50 (A431 skin [22]; [27]): 4100 ± 500 nM; GI50 (BE2-C neuroblastoma [24]; [27]): 900 ± 200 nM
6 | N[C@H]1CCCC[C@@H]1N.[Cl-].[Cl-].[Pt+2].c1cnc2c(c1)ccc1cccnc12 [PHENSS(II)] | 440 ± 55 | 300 ± 32 | 290 ± 37 | 250 ± 41 | 240 ± 22 | 340 ± 100 | 230 ± 49 | 390 ± 60 | 87 ± 27 | 110 ± 27 | 240 ± 60 | 1200 ± 340 | – | –
7 | N[C@H]1CCCC[C@@H]1N.O=[N+]([O-])[O-].O=[N+]([O-])[O-].[OH-].[OH-].[Pt+4].c1cnc2c(c1)ccc1cccnc12 [PHENSS(IV)] | – | – | – | – | – | – | – | – | – | – | – | – | – | GI50 [13, 28]: 310 ± 92 nM; GI50 (U87 glioblastoma [14]; [28]): 4900 ± 610 nM; GI50 (MIA pancreas [15]; [28]): 3400 nM; GI50 (SJ-G2 glioblastoma [16]; [28]): 1700 nM; GI50 [18, 28]: 710 ± 300 nM; GI50 (H460 lung [19]; [28]): 1700 ± 200 nM; GI50 (A2780 ovarian [20]; [28]): 800 ± 84 nM; GI50 (MCF-7 breast [21]; [28]): 16000 nM; GI50 (A431 skin [22]; [28]): 4300 ± 530 nM; GI50 [23, 28]: 1700 nM; GI50 (BE2-C neuroblastoma [24]; [28]): 3000 ± 530 nM
8 | COc1ccc2c(c1)c(CC(=O)[O][Pt-2]13([OH])([NH2+]C4CCCCC4[NH2+]1)[n+]1cccc4ccc5ccc[n+]3c5c41)c(C)n2C(=O)c1ccc(Cl)cc1.O=[N+]([O-])[O-].O=[N+]([O-])[O-] (stereo not shown) [compound 1, [Pt(Phen)(SSDACH)(Indomethacin)(OH)](NO3)2] | 970 ± 290 | 370 ± 55 | 390 ± 87 | 740 ± 230 | 330 | 400 ± 84 | 350 ± 81 | – | 83 ± 40 | 160 ± 54 | 340 ± 100 | – | 1.08 | –
9 | COc1ccc2c(c1)c(CC(=O)[O][Pt-2]13([OH])([NH2+]C4CCCCC4[NH2+]1)[n+]1cccc4c(C)c(C)c5ccc[n+]3c5c41)c(C)n2C(=O)c1ccc(Cl)cc1.O=[N+]([O-])[O-].O=[N+]([O-])[O-] (stereo not shown) [compound 2, [Pt(56Me2Phen)(SSDACH)(Indomethacin)(OH)](NO3)2] | 170 ± 19 | 22 ± 4.2 | 34 ± 8.6 | 37 ± 2.3 | 21 ± 2 | 40 ± 14 | 24 ± 6.1 | 130 ± 41 | 13 ± 3.6 | 7.5 ± 3.6 | 23 ± 8.2 | 47 ± 4.9 | 1.28 | –
10 | CC(=O)Oc1ccccc1C(=O)[O-].Cc1c(C)c2cccnc2c2ncccc12.N[C@H]1CCCC[C@@H]1N.O=[N+]([O-])[O-].O=[N+]([O-])[O-].[OH-].[Pt+4] [compound 4, [Pt(56Me2Phen)(SSDACH)(Aspirin)(OH)](NO3)2] | 63 ± 6 | 15 ± 1 | 22 | 36 ± 10 | 8 ± 1 | 31 | 12 | 98 ± 21 | 7 ± 1 | 3 | 9 ± 2 | 24 | 0.65 | –
11 | [Pt(Phen)(SSDACH)(Aspirin)(OH)](NO3)2 [compound 3] | 360 ± 60 | 350 ± 20 | 260 ± 30 | 390 ± 80 | 160 ± 30 | 670 ± 100 | 200 | 620 ± 90 | 140 ± 10 | 140 ± 10 | 210 ± 29 | 600 ± 60 | 0.41 | reduction by ascorbic acid (1H and 195Pt NMR) [26]: reduction to its platinum(II) congener
